Results reported in US20160281133A1, “STABILIZATION AND ISOLATION OF EXTRACELLULAR NUCLEIC ACIDS” (QIAGEN GMBH, priority 2013, published 2016).
Counter-ions that a name gives are not always drawn. Where a SMILES comes first, the peptide text is derived from it. The star is where a group is joined. Cbz = O=C(OCc1ccccc1)*

What was measured:
cathepsin L = cathepsin L (Homo sapiens, UniProt P07711); conditions: cited from earlier work
calpain II = biological target: T1, calpain II (Homo sapiens, UniProt P17655); conditions: cited from earlier work
T1 sequence (P17655 1-700): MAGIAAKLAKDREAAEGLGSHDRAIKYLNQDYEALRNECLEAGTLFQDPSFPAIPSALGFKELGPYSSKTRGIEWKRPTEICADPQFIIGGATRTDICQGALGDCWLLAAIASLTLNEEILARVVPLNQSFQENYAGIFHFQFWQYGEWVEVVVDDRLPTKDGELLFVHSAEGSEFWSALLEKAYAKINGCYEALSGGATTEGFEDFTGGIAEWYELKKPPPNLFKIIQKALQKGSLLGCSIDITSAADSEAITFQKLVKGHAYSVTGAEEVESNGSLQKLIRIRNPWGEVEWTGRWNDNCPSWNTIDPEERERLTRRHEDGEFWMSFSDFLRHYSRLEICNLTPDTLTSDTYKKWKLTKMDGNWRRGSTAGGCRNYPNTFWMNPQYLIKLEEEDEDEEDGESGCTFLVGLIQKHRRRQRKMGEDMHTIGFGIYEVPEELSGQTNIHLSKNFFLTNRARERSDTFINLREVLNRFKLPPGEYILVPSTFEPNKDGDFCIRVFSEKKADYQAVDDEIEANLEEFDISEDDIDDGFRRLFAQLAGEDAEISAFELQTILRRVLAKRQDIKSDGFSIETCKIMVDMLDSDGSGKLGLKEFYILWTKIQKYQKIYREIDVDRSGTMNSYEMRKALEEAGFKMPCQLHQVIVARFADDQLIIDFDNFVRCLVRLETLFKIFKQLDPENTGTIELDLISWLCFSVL
T1 sequence (P04632 1-268 partner): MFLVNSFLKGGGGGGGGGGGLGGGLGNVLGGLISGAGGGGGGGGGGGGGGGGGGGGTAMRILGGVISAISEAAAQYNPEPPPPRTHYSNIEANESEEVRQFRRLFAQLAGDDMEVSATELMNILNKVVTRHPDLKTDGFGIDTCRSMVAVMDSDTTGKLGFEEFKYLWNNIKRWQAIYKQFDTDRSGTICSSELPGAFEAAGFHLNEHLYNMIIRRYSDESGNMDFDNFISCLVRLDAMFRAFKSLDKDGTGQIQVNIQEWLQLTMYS

caspase-1 = biological target: T2, caspase-1 (Homo sapiens, UniProt P29466); conditions: cited from earlier work
T2 sequence (P29466 120-297 limits assumed): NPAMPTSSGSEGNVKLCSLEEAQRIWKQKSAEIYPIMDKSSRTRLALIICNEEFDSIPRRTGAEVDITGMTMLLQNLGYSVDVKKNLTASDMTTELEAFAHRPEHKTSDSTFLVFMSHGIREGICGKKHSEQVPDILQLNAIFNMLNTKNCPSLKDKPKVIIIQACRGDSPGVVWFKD
T2 sequence (P29466 317-404 limits assumed): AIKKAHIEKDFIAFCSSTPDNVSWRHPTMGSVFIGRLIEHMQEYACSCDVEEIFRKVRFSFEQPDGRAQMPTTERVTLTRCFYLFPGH

white blood cells = assay: 18S rDNA qPCR (66 bp / 500 bp): release of genomic DNA into plasma of stored stabilized blood, examples 1-4; assay type: cell-based, human
Experimental: Blood from two different donors was collected into 10 ml K2 EDTA tubes (BD). 4.5 ml of the respectively collected blood was mixed with 0.9 ml of two different stabilization solutions A and B. Said stabilization solutions contained (per ml of stabilization solution):
A: 34.2 mg K2 EDTA and 0.15 g or 0.18 g butanamide in water When using stabilization solution A, the following final concentration in the blood/stabilization mixture was obtained: 7.2 mg K2 EDTA/ml and 2.5% (w/v) or 3% (w/v) butanamide. […] When using stabilization solution B, the following final concentration in the blood/stabilization mixture was obtained: 7.2 mg K2 EDTA/ml, 3% (w/v) butanamide and 1 μM Quinoline-Val-Asp-CH2-OPH (caspase inhibitor).
All stabilized blood samples were set up in triplicates per condition and test time point. At time point 0 (reference), immediately after mixing the stabilization solution and blood, plasma was generated and the circulating extracellular DNA was extracted. The residual stabilized blood sample was stored for three days and six days at room temperature.
Plasma was generated from the stabilized and unstabilized (EDTA) blood samples by inverting the blood containing tubes for four times. Then, the tubes were centrifuged for 10 minutes at 1900×g at 4° C. 2.5 ml of the plasma fraction was transferred into a fresh 15 ml falcon tube and centrifuged for 10 minutes at 16.000×g at 4° C. 2 ml of the respectively cleared plasma was used for extracellular nucleic acid isolation using the QIAamp circulating nucleic acid kit (QIAGEN) according to the manufacturer's instructions.
The isolated extracellular DNA was analyzed using two different qPCR assays, targeting different fragment lengths of the 18S ribosomal DNA:
18S ribosomal DNA: 66 bp amplicon 18S ribosomal DNA: 500 bp amplicon
Cycle threshholds of the individual samples were translated into amount of gDNA in the eluate, according to a gDNA standard curve. The gDNA amount of the storage time points was compared to the time zero gDNA level from the same donor and is shown as fold increase in the figures. […]

whole blood samples [1] = assay: DNA size distribution by chip gel electrophoresis (blood cell stability/DNA release); assay type: cell-based, human; conditions: 20 μM in 10 ml K2E blood; day 3 and day 7
Experimental: To separate the blood plasma from the whole blood, the blood samples were centrifuged for 15 min at 5000 rpm, and the obtained plasma samples were again centrifuged for 10 min at 16.000×g at 4° C.
The circulating, extracellular nucleic acids were purified from the obtained plasma samples using the QIAamp® Circulating NA Kit (QIAGEN, according to the handbook). In brief: • 10 ml sample input; • lysis: 1 ml Proteinase K and 8 ml Buffer ACL (QIAGEN) • binding: 18 ml Buffer ACB (QIAGEN) • wash-steps: unchanged and according to handbook • elution in 60 μl Buffer AVE (QIAGEN)
1.3.1 Measurement of the blood cell stability/DNA release by the determination of DNA size distribution using a chip gel electrophoresis (2100 Bioanalyzer; Agilent Technologies; Inc., USA) according to manufacturer's instruction (see handbook Agilent DNA 7500 and DNA 12000 Kit Guide), but 1.5 μl instead of 1 μl sample were transferred to the wells.
Each tested caspase inhibitor was added to whole blood samples (20 μM end concentration in 10 ml blood; blood was collected into Vacutainer K2E Tubes; BD). The whole blood sample was processed as described in section 1 (plasma preparation and nucleic acid isolation).
The eluted circulating cell-free DNA was separated by size using chip gel electrophoresis (for details on the method see above). […]

cells = conditions: even at extremely high concentrations; cited from earlier work
whole blood samples [2] = assay: 18S DNA duplex real time PCR assay, increase of DNA in plasma of stored blood, example 5; assay type: cell-based, human; conditions: 20 μM caspase inhibitor in whole blood; storage at RT
caspase-3 = biological target: T3, caspase-3 (Homo sapiens, UniProt P42574); conditions: cited from earlier work
T3 sequence (P42574 29-175 limits assumed): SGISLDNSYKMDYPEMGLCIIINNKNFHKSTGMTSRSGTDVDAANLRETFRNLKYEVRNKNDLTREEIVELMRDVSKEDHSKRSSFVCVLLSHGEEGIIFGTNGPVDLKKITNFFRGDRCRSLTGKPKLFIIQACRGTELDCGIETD
T3 sequence (P42574 176-277 limits assumed): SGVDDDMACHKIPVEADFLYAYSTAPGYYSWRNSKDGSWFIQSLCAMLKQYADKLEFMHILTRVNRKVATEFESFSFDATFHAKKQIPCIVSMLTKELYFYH

[3] = biological target: N-SMase (neutral sphingomyelinase); conditions: rat brain; cited from earlier work
MCF7 breast cancer cells = conditions: at 20 μM; cited from earlier work
[4] = in neuron culture medium at 37° C.; cited from earlier work
HeLa cell mitochondria = conditions: at 5 μM; cited from earlier work

Sequence of cathepsin L (P07711 114-333, species assumed): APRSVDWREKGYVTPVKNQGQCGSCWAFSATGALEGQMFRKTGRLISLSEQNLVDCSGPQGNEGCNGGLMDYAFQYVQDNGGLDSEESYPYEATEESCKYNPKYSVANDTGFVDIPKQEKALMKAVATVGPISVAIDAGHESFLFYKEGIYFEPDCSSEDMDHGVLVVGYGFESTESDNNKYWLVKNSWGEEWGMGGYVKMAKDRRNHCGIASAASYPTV

For CC(C)C[C@H](NC(=O)OCc1ccccc1)C(=O)N[C@@H](CC(C)C)C(=O)N[C@@H](Cc1ccc(O)cc1)C(=O)CF [Calpain Inhibitor IV, Z-Leu-Leu-Tyr-CH2F] (HELM PEPTIDE1{[O=C(OCc1ccccc1)[*:2]].L.L.Y.[FC[*:1]]}$$$$V2.0), the k2 (cathepsin L) is given as 680,000 M−1s−1) and the k2 (calpain II; irreversible inhibitor) is given as 28,900 M−1s−1). Also acts as an inhibitor of cathepsin L (k2 =.
In the case of “Ac-Tyr-Val-Ala-Asp-CMK [Caspase-1 Inhibitor II]”, the Ki (caspase-1) is listed as 0.76 nM.
In the case of “Ac-Ala-Ala-Val-Ala-Leu-Leu-Pro-Ala-Val-Leu-Leu-Ala-Leu-Leu-Ala-Pro-Tyr-Val-Ala-Asp-CHO (Ac-AAVALLPAVLLALLAPYVAD-aldehyde; SMILES CC(=O)N[C@@H](C)C(=O)N[C@@H](C)C(=O)N[C@H](C(=O)N[C@@H](C)C(=O)N[C@@H](CC(C)C)C(=O)N[C@@H](CC(C)C)C(=O)N1CCC[C@H]1C(=O)N[C@@H](C)C(=O)N[C@H](C(=O)N[C@@H](CC(C)C)C(=O)N[C@@H](CC(C)C)C(=O)N[C@@H](C)C(=O)N[C@@H](CC(C)C)C(=O)N[C@@H](CC(C)C)C(=O)N[C@@H](C)C(=O)N1CCC[C@H]1C(=O)N[C@@H](Cc1ccc(O)cc1)C(=O)N[C@H](C(=O)N[C@@H](C)C(=O)N[C@H](C=O)CC(=O)O)C(C)C)C(C)C)C(C)C) [Caspase-1 Inhibitor I, Cell-Permeable]”, the Ki (caspase-1) is listed as 1 nM.
For CCCC(N)=O [butanamide], the “stabilization capabilities compared to DMAA” value (white blood cells; Example 2, 2.5, 3, 3.5% (w/v) butanamide with 1 μM caspase inhibitor and EDTA vs 5% DMAA) was “at least comparable stabilization capabilities to DMAA”, the “stabilization capabilities compared to the stabilization solution comprising DMAA” value (white blood cells; Example 3, 0.5, 1.5, 2% butanamide in combination with 2.5, 1.5, 1% DMPA, 1 μM caspase inhibitor, EDTA) was “comparable stabilization capabilities” and the “increase in 18S rDNA” value (white blood cells; Example 4, 0.5, 1.5, 2.5% (w/v) butanamide with 1 μM caspase inhibitor and 7.2 mg K2EDTA/ml) was “significantly reduced increase in 18S rDNA”.
For CC(C)C(NC(=O)c1ccc2ccccc2n1)C(=O)NC(CC(=O)O)C(=O)COc1c(F)cccc1F (stereo not drawn) [Q-VD-OPh, Quinoline-Val-Asp-CH2-OPH], the “ladder-like pattern of bands (release and fragmentation of genomic DNA) compared to controls” value (whole blood samples [1]) is listed as “significantly reduced ladder-like patterns”, the toxicity to cells (cells) is listed as “not toxic to cells” and the “increase of DNA from day 0 to day 3 or 7” value (whole blood samples [2]) is listed as “reduced increase of DNA”.
In the case of “Ac-Ala-Ala-Val-Ala-Leu-Leu-Pro-Ala-Val-Leu-Leu-Ala-Leu-Leu-Ala-Pro-Asp-Glu-Val-Asp-CHO (Ac-AAVALLPAVLLALLAPDEVD-aldehyde; SMILES CC(=O)N[C@@H](C)C(=O)N[C@@H](C)C(=O)N[C@H](C(=O)N[C@@H](C)C(=O)N[C@@H](CC(C)C)C(=O)N[C@@H](CC(C)C)C(=O)N1CCC[C@H]1C(=O)N[C@@H](C)C(=O)N[C@H](C(=O)N[C@@H](CC(C)C)C(=O)N[C@@H](CC(C)C)C(=O)N[C@@H](C)C(=O)N[C@@H](CC(C)C)C(=O)N[C@@H](CC(C)C)C(=O)N[C@@H](C)C(=O)N1CCC[C@H]1C(=O)N[C@@H](CC(=O)O)C(=O)N[C@@H](CCC(=O)O)C(=O)N[C@H](C(=O)N[C@H](C=O)CC(=O)O)C(C)C)C(C)C)C(C)C) [Caspase-3 Inhibitor I, Cell-Permeable]”, the Ki (caspase-3) is given as under 1 nM.
For O=C(C=Cc1ccc(C=CC(=O)Nc2ccc(C3=NCCN3)cc2)cc1)Nc1ccc(C2=NCCN2)cc1 [GW 4869], the IC50 [3] is listed as about 1000 nM and the “protection against TNF-α or diamine-induced cell death” value (MCF7 breast cancer cells) is listed as “specific PLC. Reported to offer complete protection against TNF-α”.
For N=c1sc2c(n1CC(=O)c1ccc([N+](=O)[O-])cc1)CCCC2 [Pifithrin-α, p-Nitro], the t½ [4] is listed as “biological systems (t½ = 8 h in neuron culture medium at 37° C.)”.
For CC(C)C(NC(=O)OCc1ccccc1)C(=O)NC(C=O)Cc1ccccc1 (stereo not drawn) [Calpain Inhibitor III, Z-Val-Phe-CHO] (Cbz-Val-Phe-aldehyde; configuration not given here), the Ki (calpain II) is listed as 8 nM.
In the case of OC(CN1CCNCC1)Cn1c2ccc(Br)cc2c2cc(Br)ccc21 (racemic) [Bax Channel Blocker, (±)-1-(3,6-Dibromocarbazol-9-yl)-3-piperazin-1-yl-propan-2-ol, bis TFA], the “inhibition of Bid-induced cytochrome c release” value (HeLa cell mitochondria) is listed as “cyctochrome c release from HeLa cell mitochondria (~80%”.
